Measurements published in patent US12240811B2, “N-heterocyclic five-membered ring-containing capsid protein assembly inhibitor, pharmaceutical composition and uses thereof” (CHIA TAI TIANQING PHARMACEUTICAL GROUP CO., LTD., priority 2019, dated 2025).

How the values were obtained:
[1] = target: CYP1A2 (Homo sapiens (Human), UniProt P05177); assay: CYP450 enzyme inhibition study, CYP1A2; assay type: in vitro ADME
Description: 500 μL of a final incubation system contains 50 μL of human liver microsomes (protein concentration: 0.2 mg/mL, Corning), 1 μL of mixed CYP450 specific substrates (CYP1A2, CYP 2B6, CYP 2C9, CYP2C19, CYP 2D6, and CYP 3A4), 398 μL PBS buffer (pH7.4), 1 μL specific positive inhibitor (positive control group) or the test compound (formulated with acetonitrile), and 50 μL NADPH+MgCl2. Duplicate incubation systems of 0.5 mL each were formulated for each CYP450 subtype. A total volume of 450 μL of a uniformly mixed solution of the substrate and the enzyme was formulated in each tube, and the solution and NADPH were pre-incubated at 37° C. for 5 minutes, respectively. Then 50 μL of the mixed solution of NADPH+MgCl2 was added for reaction. 50 μL of the reaction solution was taken out at 30 minutes, and the reaction was terminated with 300 μL of ice acetonitrile containing an internal standard. In addition, two control groups of 500 μL each without NADPH were prepared in parallel as a negative control group.
(§1) Sample pre-treatment: To 50 μL of the incubated sample was added 300 μL of ice acetonitrile containing an internal standard, and then precipitated. After vortexing for 5 minutes, the sample was centrifugated (12000 rpm, 4° C.) for 10 minutes. 75 μL of the supernatant was pipetted, and 75 μL of ultrapure water was added thereto for dilution and mixed uniformly. […]

[2] = Plasma protein binding assay, human plasma; assay type: in vitro ADME
Description: (§2) Formulation of plasma sample: 495 μL of blank plasmas of the corresponding species (mouse, rat, dog, monkey, and human) were drawn respectively, and thereto was added 5 μL of the corresponding test compound solution or positive control to give plasma sample solutions having a plasma drug concentration of the compound of 1 μM, and 10 μM, respectively (formulated with acetonitrile).
(§3) The pre-treated dialysis membrane was placed in a high-throughput equilibrium dialysis device, and 100 μL of the plasma sample solution and PBS buffer solution were drawn and added respectively to both sides of the dialysis membrane (sample side and buffer side) (n=3). After the equilibration device was sealed with a film, it was incubated at 37° C. overnight (100 rpm). After dialysis equilibrium was reached, 50 μL samples were drawn from the sample side and the buffer side, respectively, and the reaction was terminated by adding ice acetonitrile containing an internal standard.
as §1, with “plasma-side” for “incubated”, “450” for “300”, “uniformly. 1 μL of the resulting solution was injected for analysis.” for “uniformly.”

[3] = Plasma protein binding assay, rat plasma; assay type: in vitro ADME
Description: as §2, §3
as §1, with “plasma-side” for “incubated”, “450” for “300”, “uniformly. 1 μL of the resulting solution was injected for analysis.” for “uniformly.”

[4] = Plasma protein binding assay, mouse plasma; assay type: in vitro ADME
Description: as §2, §3
as §1, with “plasma-side” for “incubated”, “450” for “300”, “uniformly. 1 μL of the resulting solution was injected for analysis.” for “uniformly.”

[5] = Plasma protein binding assay, monkey plasma; assay type: in vitro ADME
Description: as §2, §3
as §1, with “plasma-side” for “incubated”, “450” for “300”, “uniformly. 1 μL of the resulting solution was injected for analysis.” for “uniformly.”

[6] = Stability of liver microsomes in vitro, human; assay type: in vitro ADME
Description: (§4) 300 μL of a final incubation system contains 30 μL of liver microsomes (protein concentration: 0.15 mg/mL, Corning), 30 μL NADPH+MgCl2, 3 μL substrate (formulated with acetonitrile), and 237 μL PBS buffer. Duplicate incubation systems of 0.3 mL each were formulated for each species. A total volume of 270 μL of a uniformly mixed solution of the substrate and the enzyme was formulated in each tube, the solution and NADPH were pre-incubated at 37° C. for 5 minutes, respectively. Then 30 μL of the mixed solution of NADPH+MgCl2 was added for reaction. 50 μL of the reaction solution was taken out at 0, 10, 30, and 60 mins, and the reaction was terminated with 300 μL of ice acetonitrile containing an internal standard.
(§5) Sample pre-treatment: To 50 μL of the incubated sample was added 300 μL of ice acetonitrile containing diazepam as an internal standard and then precipitated. After vortexing for 5 minutes, the sample was centrifugated (12000 rpm, 4° C.) for 10 minutes. 75 μL of the supernatant was pipetted into a 96-well plate, and then diluted with 75 μL ultrapure water and mixed uniformly. 0.5 μL of the resulting solution was injected and analyzed by LC-MS/MS.

[7] = Stability of liver microsomes in vitro, mouse; assay type: in vitro ADME
Description: as §4, §5

[8] = system: HBV DNA in serum; assay: Antiviral effect evaluation in AAV mouse model (rAAV8-1.3HBV); assay type: in vivo, C57BL/6 mice; conditions: for Reduction levels (log10) of HBV DNA in serum, Day 28: Day 28 (1 week after administration suspended)
Description: 6-8 week old male C57BL/6 mice (Shanghai Lingchang Biotechnology Co., Ltd.) were injected with rAAV8-1.3HBV virus (Beijing FivePlus Gene Technology Ltd., adr subtype) at tail vein at a dose of 1×10^11 vg. Blood was collected from the orbits of the mice on week 2 and 4 after the virus injection. The serum was separated, and the expression levels of HBeAg and HBsAg in the serum and the HBV DNA copy number were detected to evaluate whether the model was successfully established. According to the results of quantitative detection of serological HBeAg, HBsAg and HBV DNA, the mice having HBV DNA expression level greater than 1×10^4 IU/mL, HBeAg expression level greater than 1×10^3 NCU/mL and HBsAg expression level greater than 1×10^3 ng/mL were selected. The mice were grouped into a blank control group, a vehicle control group, and a test substance group. The mice in each group were continuously administered intragastrically once daily for 3 weeks and then the administration was suspended for 1 week. During the experiment, blood was collected from the orbits every other week, serum was separated, and the DNA content was detected by fluorescent quantitative PCR method.

CYP1A2, sequence (P05177 whole entry): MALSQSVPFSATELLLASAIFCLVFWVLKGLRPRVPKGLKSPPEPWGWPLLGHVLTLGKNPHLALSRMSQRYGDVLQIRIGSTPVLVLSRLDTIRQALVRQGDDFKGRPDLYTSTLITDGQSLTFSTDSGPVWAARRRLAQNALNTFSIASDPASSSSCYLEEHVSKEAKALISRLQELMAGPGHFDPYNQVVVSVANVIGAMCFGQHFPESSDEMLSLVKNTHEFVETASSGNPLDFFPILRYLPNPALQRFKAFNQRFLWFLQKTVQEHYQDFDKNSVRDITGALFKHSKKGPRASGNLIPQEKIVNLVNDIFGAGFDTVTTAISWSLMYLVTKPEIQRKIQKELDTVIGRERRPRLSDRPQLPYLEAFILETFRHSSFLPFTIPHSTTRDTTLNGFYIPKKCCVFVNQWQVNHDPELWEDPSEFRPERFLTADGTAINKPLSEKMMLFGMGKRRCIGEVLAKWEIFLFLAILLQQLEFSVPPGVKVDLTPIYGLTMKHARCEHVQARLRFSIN

## Cc1[nH]c(C(=O)C(=O)N[C@@H](C)C(F)(F)F)c(C)c1C(=O)Nc1ccc(F)c(C#N)c1 [Example 1, (S)—N-(3-cyano-4-fluorophenyl)-2,4-dimethyl-5-(2-oxo-2-((1,1,1-trifluoroprop-2-yl)amino)acetyl)-1H-pyrrole-3-carboxamide]
[1]
  IC50: 49 µM
[2]; 1 μM
  Binding rate (%) Human: 97.3%
[2]; 10 μM
  Binding rate (%) Human: 97.3%
[3]; 1 μM
  Binding rate (%) Rat: 95.0%
[3]; 10 μM
  Binding rate (%) Rat: 95.3%
[4]; 1 μM
  Binding rate (%) Mouse: 85.4%
[4]; 10 μM
  Binding rate (%) Mouse: 85.5%
[5]; 1 μM
  Binding rate (%) Monkey: 90.2%
[5]; 10 μM
  Binding rate (%) Monkey: 90.5%
[6]
  Remaining (%) of human liver microsomes at 60 min: 99%
[7]
  Remaining (%) of mouse liver microsomes at 60 min: 96%
[8]; 1 mpk intragastric once daily
  Reduction levels (log10) of HBV DNA in serum, Day 7: 2.49 log10
  Reduction levels (log10) of HBV DNA in serum, Day 14: 3.41 log10
  Reduction levels (log10) of HBV DNA in serum, Day 21: 3.65 log10
[8]; 1 mpk
  Reduction levels (log10) of HBV DNA in serum, Day 28: 3.25 log10
[8]; 10 mpk intragastric once daily
  Reduction levels (log10) of HBV DNA in serum, Day 7: 2.67 log10
  Reduction levels (log10) of HBV DNA in serum, Day 14: 3.80 log10
  Reduction levels (log10) of HBV DNA in serum, Day 21: 4.30 log10
[8]; 10 mpk
  Reduction levels (log10) of HBV DNA in serum, Day 28: 3.50 log10
